# Patent US20020045191A1, “Inhibition of the SRC kinase family pathway as a method of treating HBV infection and hepatocellular carcinoma” (priority 2000, published 2002)
# How the values were obtained:
# [1] = tested on: Pyk2; experiment: Pyk2 Y-402 phosphorylation immunoblot, Chang cells; type: cell-based, human; settings: for HBx activation of Pyk2: 0.5 mM EGTA 2 h, 50 μM BAPTA-AM 2 h, 3 μM CsA 4 h
# Procedure: FIG. 9. Chang cells or HepG2 cells were transfected with expression vectors pAdCMVX (HBx), pAdCMVXo (HBx−), pPKM, or empty vectors pAdCMV or pPRK5. (A) Chang cells were treated with 50 μM BAPTA-AM for 2 h, equal protein amounts resolved by gel-electrophoresis and immunoblotted with antibodies to Pyk2 or activated Y-402 phosphorylated Pyk2.
# (§1) TPA treatment was for […] using 20 ng/ml. […] (C) Chang cells transfected with vector or pAdCMVX were treated 2h with 0.5 mM or 3 mM EGTA, and Pyk2 examined by immunoblot. (D) HepG2 cells were transfected with HBV, HBx(−) HBV genomic DNA or vector, complemented by 2 μg plasmid pAdCMVX. Cytoplasmic HBV core particles were isolated from equal numbers of cells (Klein, et al. 1997, EMBOJ 18: 5019-5027) and viral DNA replication intermediates detected by Southern blot as described (Klein, et al. 1997, EMBOJ 18: 5019-5027). The smear represents 4 kb (mature double-stranded DNA) to 2 kb (first-strand single-stranded DNA). Northern blot analysis was carried out using poly(A+) RNA extracted from equal numbers of cells. (E) Southern and Northern blot analyses were performed on HepG2 cells transfected as above with or without pPKM or PPRKS. Typical experiments are shown.
# Studies determined whether HBx acts on intracellular calcium to activate Pyk2. […] HBx activation of Pyk2 therefore involves cytosolic calcium action. Studies next determined whether HBx acts on calcium channels in the endoplasmic reticulum (ER), mitochondria or plasma membrane (PM) for its activity.
# [2] = tested on: Pyk2; experiment: Pyk2 activity (Y-402 phosphorylation immunoblot) in nontransfected HepG2 cells; type: cell-based, human; settings: valinomycin 1 nM, thapsigargin 20 nM
# Procedure: (§2) FIG. 11. (A) HepG2 cells were with HBV or HBx(−) HBV genomic DNA. At 24 h post-transfection cells were treated with 1 nM valinomycin (val.) or 20 nM thapsigargin (thap.) for 4 d, cytoplasmic core particles were isolated from equal numbers of cells and viral replication examined by Southern blot hybridization. HBV transcription was analyzed by Northern blot hybridization. (B) Nontransfected HepG2 cells 5were treated with valinomycin or thapsigargin as above, and the abundance of Pyk2 or activated Pyk2 Y-402 phosphorylation determined by immunoblot
# Studies next determined whether HBx activity can be replaced by ionophoric agents that increase cytosolic calcium. Cells were transfected with plasmids expressing wild type HBV or HBx(−) genomes and treated for 4 d with low, nontoxic levels of calcium mobilizing agents valinomycin (1 nM) or thapsigargin (20 nM). Reverse transcription and DNA replication of (HBx−)HBV were increased 20 fold by valinomycin to wild type (HBx+) levels, and 10 fold by thapsigargin (FIG. 11A).
# [3] = tested on: HBV; experiment: HBV mRNA levels, Northern blot, HepG2 cells; type: cell-based, hepatitis B virus; settings: for cytoplasmic levels of HBV pgRNA and HBsAg mRNAs: HepG2 cells, 4 d, valinomycin 1 nM, thapsigargin 20 nM
# Procedure: as §1
# FIG. 10. […] Products were resolved by electrophoresis and detected by autoradiography. Typical results are shown.
# as §2
# The requirement for cytosolic calcium and HBx activation of Pyk2 in HBV replication was examined. […]
# Studies next determined whether HBx activity can be replaced by ionophoric agents that increase cytosolic calcium. […]
# [4] = tested on: HBV; experiment: HBV DNA replication in cytoplasmic core particles, Southern blot, HepG2 cells; type: cell-based, hepatitis B virus; settings: for increase of reverse transcription and DNA replication of (HBx−)HBV: HepG2 cells, 4 d, valinomycin 1 nM, thapsigargin 20 nM
# Description: Cytoplasmic viral core particles were isolated and HBV DNA replication and mRNA levels detected by Southern and Northern blot hybridization.
# The requirement for cytosolic calcium and HBx activation of Pyk2 in HBV replication was examined. […] HepG2 cells were transfected with vector alone, wild type HBV genomic DNA, or HBx(−) genomic DNA, cytoplasmic viral core particles, the structures in which viral DNA replication takes place, were isolated and the level of viral DNA replication was examined (FIG. 9D).
# The requirement for cytosolic calcium in HBx-dependent viral replication was investigated.
# [5] = tested on: c-Src; experiment: c-Src immunoprecipitation and in vitro kinase assay (auto-phosphorylation, enolase trans-phosphorylation), NIH 3T3 cells; type: cell-based; settings: serum-starved NIH 3T3 cells, PDGF (100 ng/ml) for 5 minutes
# Procedure: FIG. 1. Serum-starved NIH 3T3 cells were infected with AdCMV-X or -Xo viruses, c-Src or c-Fyn was immunoprecipitated, the pellet washed and assayed by incubation with the substrate enolase and [γ-^32P] ATP. Products were resolved by SDS-10%-PAGE then visualized and quantitiated by PhosphorImage analysis.
# c-Src (FIG. 1A) or c-Fyn (FIG. 1B) were immunoprecipitated 8 h p.i. from NIH 3T3 cell lysates expressing HBx or HBxo. Where indicated, cells were incubated with PDGF (100 ng/ml) for 5 min.
# Src kinase assays were carried out essentially as described (Kypta et al., 1990, Cell 62:481-492). Briefly, NIH 3T3 or Chang cells were lysed in buffer containing 1% NP-40, 150 mM NaCl, 20 mM Tris HCl pH 8, 2.5 mM EDTA, 1 mM Na3VO4, 50 mM NaF, 1 mM PMSF, 10 μg/ml aprotinin, and 10 μg/ml leupeptin. Src and Fyn kinase activity were measured by immunoprecipitating either Src (1 μg anti-Src antibodies) or Fyn (1 μg/ml anti-Fyn antibodies) from equal amounts of cell lysate. […] For the reactions containing the Src peptide substrate, TCA was added to a final concentration of 20%, an aliquot was spotted onto phosphocellulose paper (UBI), the filters were washed 3×5 minutes in 0.75% phosphoric acid and once in acetone, dried and analyzed by scintillation counting. […]
# [6] = Chang cells, high concentration of EGTA (3 mM)
Molecule,HBx activation of Pyk2 ([1]; Chang cells),stimulation of Pyk2 activity [2],cytoplasmic levels of HBV pgRNA and HBsAg mRNAs [3],increase of reverse transcription and DNA replication of (HBx−)HBV [4],further results
O=C(O)CN(CCOCCOCCN(CC(=O)O)CC(=O)O)CC(=O)O [EGTA],no effect,,,,"TPA activation of Pyk2 phosphorylation [1, 6]: did not block; activation of Pyk2 by HBx [1, 6]: partially inhibited"
CC(C)[C@@H]1NC(=O)[C@H](C)OC(=O)[C@@H](C(C)C)NC(=O)[C@@H](C(C)C)OC(=O)[C@H](C(C)C)NC(=O)[C@H](C)OC(=O)[C@@H](C(C)C)NC(=O)[C@@H](C(C)C)OC(=O)[C@H](C(C)C)NC(=O)[C@H](C)OC(=O)[C@@H](C(C)C)NC(=O)[C@@H](C(C)C)OC1=O [valinomycin],,5 fold,Neither agent increased,20 fold,
CC(=O)OCOC(=O)CN(CC(=O)OCOC(C)=O)c1ccccc1OCCOc1ccccc1N(CC(=O)OCOC(C)=O)CC(=O)OCOC(C)=O [BAPTA-AM],prevented,,,,"HBx-induced Pyk2 phosphorylation at Y-402 ([1]; HBx transfected Chang cells, 50 μM (2 times IC50) for 2 h): prevented; Pyk2 levels ([1]; HBx transfected Chang cells, 50 μM for 2 h): without altering; HBV mRNA levels ([3]; HBV genome transfected HepG2 cells, low levels of BAPTA-AM for 4 d): without strongly reducing; impairment of HBV viral DNA replication ([4]; HBV genome transfected HepG2 cells, low levels of BAPTA-AM (2.5 μM or 25 μM) for 4 d): 10 fold"
PDGF,,,,,activation of c-Src (auto- and trans-phosphorylation) [5]: 3-4 fold
C/C=C(/C)C(=O)O[C@H]1C(C)=C2[C@H]([C@@H]1OC(=O)CCCCCCC)[C@@](C)(OC(C)=O)C[C@H](OC(=O)CCC)[C@@]1(O)[C@H]2OC(=O)[C@@]1(C)O [thapsigargin],,3 fold,Neither agent increased,10 fold,
